In data set [1] the test system is MTAse deficient A549 cells. The data set is described as follows: growth restoration by MTAse substrates after L-alanosine (FIG. 3). The class given is cell-based.
For data set [2], the system named is MTAse competent MOLT-4 cells. The data set is described as above. It counts as cell-based.
Data set [3] has as its system MTAse competent A427 cells. Described as above. It counts as cell-based.
Data set [4] relates to MTAse deficient CEM cells. Described as above. The class given is cell-based.
Another data set relates to MTAse competent cancers. The following applies: cited from earlier work.
Data set [5] concerns MES-SA/Dx5 cells. The data set is described as follows: growth of MES-SA/Dx5 drug resistant cells with L-alanosine and other agents. It counts as cell-based. The following applies: data not shown.
Data set [6] concerns MTAse deficient H292 cells. The data set is described as follows: proliferation in presence of L-alanosine with MTA or adenine added (FIG. 2). The class given is cell-based. The conditions noted are these: L-alanosine 40 μM.
A short description of data set [7]: toxicity / body weight of nude mice in xenograft study. It counts as in vivo, Balb/c athymic nude mice. The method, then: 10^7 A549 or A427 NSCLC cells were injected subcutaneously into 6-week old Balb/c athymic nude mice. When tumors had reached approximately 0.4 cm diameter, treatment was begun with L-alanosine or saline by intraperitoneal injection every 12 hours.
Mice received 15 mg/kg per injection for 7 days then 22.5 mg/kg for 5 days. Tumor size was measured as the product of perpendicular diameters. The results for treated (n=6 [sample size] for each cell type) vs. control (n=4 [sample size] for each cell type) mice are shown in FIG. 5.

The conditions of data set [8]: cited from earlier work.
A further data set concerns melanoma. The following applies: Phase II, melanoma patients; cited from earlier work.
The next data set concerns A427 NSCLC cells. The data set is described as follows: tumor xenograft in nude mice, MTAP-positive A427 cells (FIG. 5). It counts as in vivo, Balb/c athymic nude mice. The following applies: i.p. every 12 hours; 15 mg/kg per injection 7 days then 22.5 mg/kg 5 days. Here is the method:
(§1) 10^7 A549 or A427 NSCLC cells were injected subcutaneously into 6-week old Balb/c athymic nude mice. When tumors had reached approximately 0.4 cm diameter, treatment was begun with L-alanosine or saline by intraperitoneal injection every 12 hours. Mice received 15 mg/kg per injection for 7 days then 22.5 mg/kg for 5 days. Tumor size was measured as the product of perpendicular diameters. The results for treated (n=6 [sample size] for each cell type) vs. control (n=4 [sample size] for each cell type) mice are shown in FIG. 5.

The test system of the next data set is human cancers. The conditions noted are these: cited from earlier work.
The test system of a further data set is MV522Q6 cells. The data set is described as follows: growth of MDR cells by reduction of a tetrazolium dye (FIG. 1A). The class given is cell-based, human. The following applies: 10 μM; for sensitivity of the resistant cell line to chemotherapy: MV522Q6 compared with MV522, three days. The method, then:
MV522 is a human cancer cell line; MV522Q6 is a variant of the cell line with MDR. Each cell line was grown in a monolayer as and contacted with 10 μM of a chemotherapeutic agent and/or L-alanosine (as shown in FIGS. 1A and 1B). Growth, or the lack thereof, was measured in each population of cells by reduction of a tetrazolium dye after three days in culture.
FIG. 1A is a graph depicting the effect of L-alanosine and different chemotherapeutic agents (vinblastine and taxol) on a MDR cancer cell line (MV522Q6). FIG. 1B is a graph depicting the effect of the same drugs on the cell line before acquisition of resistance (MV522). […] However, the adenine synthesis inhibitor L-alanosine is nearly 10 times as potent in the resistant cell line than the other agents tested.

The next data set concerns breast cancer. The conditions noted are these: breast cancer patients; cited from earlier work.
For data set [9] the following is noted: humans, intravenous, cited from earlier work.
The subject of another data set is A549 NSCLC cells. The data set is described as follows: tumor xenograft in nude mice, MTAP-deficient A549 cells (FIG. 5). It counts as in vivo, Balb/c athymic nude mice. The following applies: i.p. every 12 hours; 15 mg/kg per injection 7 days then 22.5 mg/kg 5 days. Here is the method:
as §1

For data set [10], the system named is MES-SA/Dx5 cells. The conditions noted are these: cited from earlier work.

Structures are written as SMILES.

In the case of `C[C@H]1O[C@@H](n2cnc3c(N)ncnc32)[C@H](O)[C@@H]1O` [5'-deoxyadenosine], the growth restoration entry in [1] is on record as “remained growth inhibited”; in data set [2], “growth restoration”; in [3], “growth restoration”; in [4] it was “remained growth inhibited”.
In the case of `N[C@@H](CN(O)N=O)C(=O)O` [L-alanosine], in the data set on MTAse competent cancers, the “success in clinical trials” value was “no appreciable success”. The “effect on drug resistant cell line vs other agents tested” value in the data set with MES-SA/Dx5 cells [5] is “significantly more affected by L-alanosine than by the other agents tested”. The “inability to proliferate in the presence of L-alanosine despite MTA” value in [6] (H292 compared with Calu-6, with MTA) is “selective inability of MTAse deficient NSCLC cells to proliferate”. In addition, the toxicity result in [7] (15 and 22.5 mg/kg per injection, i.p. every 12 hours) is on record as “No toxicity was evident”. In addition, the body weight entry in data set [7] (throughout testing) is recorded as “stable weights”. Moreover, the dose limiting toxicity result in [8] (continuous infusion about 125 mg/m^2 for 5 days, adults, acute non-lymphoblastic leukemia, phase II) is “mucositis”. The “toxicity after multiple bolus dosing” value in data set [8] (multiple bolus dosing) was “Stomatitis and esophagitis”. Moreover, in data set [8] (prior clinical trials), the dose-limiting toxicity result is “renal toxicity, stomatitis, esophagitis”; the “reactions with lesser frequency” value is “myelosuppression, headache, nausea and hypo- or hypertension”. The “dose at which renal toxicity occurred” value in [8] (single bolus dosing) is given as “above 4 g/m^2 body weight”. Also, the “dose at which two pediatric patients suffered liver failure” value in data set [8] (two pediatric patients, separate doses) is recorded as “about 350 mg/m^2 body weight per day”. In the data set with melanoma, the therapeutic response entry is given as “little therapeutic response observed”. The “effect on growth of MTAP-positive cells” value with A427 NSCLC cells is given as “no effect on the growth”. Besides, in the data set on human cancers (Phase II studies, Creagan et al.), the overall response rate is 4%. Besides, the “efficacy for treatment of human cancers” value in the data set on human cancers (Tyagi and Cooney 1984) is recorded as “little encouragement”. Also, in the data set on MV522Q6 cells (MV522Q6 (MDR), three days in culture), the “potency of L-alanosine in the resistant cell line relative to the other agents tested” value was around 10 times. Moreover, in the data set on MV522Q6 cells (MV522Q6 vs MV522), the “potency in the resistant cell line vs the non-resistant cell line” value is on record as “as, if not more, potent in the resistant cell line than in the non-resistant cell line”. The objective responses result in the data set with breast cancer is recorded as “no objective responses observed”. The plasma clearance result in data set [9] is “biphasic”. Further, in data set [9] (plasma, biphasic, approximate), the t1/2α is around 14 min and the t1/2β is around 99 min. Further, the “size of well-established MTAP-deficient tumors” value with A549 NSCLC cells is “decrease in the size”.
For `Nc1ncnc2nc[nH]c12` [adenine], the “proliferation of control cultures containing adenine” value in [6] (control cultures with adenine (Calu-6 / H292)) is “proliferate despite L-alanosine”.
In the case of `CC(=O)O[C@H]1C(=O)[C@@]2(C)[C@H]([C@H](OC(=O)c3ccccc3)[C@]3(O)C[C@H](OC(=O)[C@H](O)[C@@H](NC(=O)c4ccccc4)c4ccccc4)C(C)=C1C3(C)C)[C@]1(OC(C)=O)CO[C@@H]1C[C@@H]2O` [taxol], the “resistance level to chemotherapeutic agents” value in the data set on MES-SA/Dx5 cells [10] is recorded as “highly resistant”. Also, the “sensitivity of the resistant cell line to chemotherapy” value in the data set on MV522Q6 cells was “greatly reduced”.
As to `CC[C@]1(O)C[C@@H]2CN(CCc3c([nH]c4ccccc34)[C@@](C(=O)OC)(c3cc4c(cc3OC)N(C)[C@H]3[C@@](O)(C(=O)OC)[C@H](OC(C)=O)[C@]5(CC)C=CCN6CC[C@]43[C@@H]65)C2)C1` [vinblastine], the “resistance level to chemotherapeutic agents” value with MES-SA/Dx5 cells [10] is recorded as “highly resistant”. Moreover, the “sensitivity of the resistant cell line to chemotherapy” value in the data set with MV522Q6 cells is on record as “greatly reduced”.

Source of the values: US6210917A, “Method for suppressing multiple drug resistance in cancer cells” (priority 1997, dated 2001).
